Experimental findings from US10287269B2, “Pyrazolyl pyrimidinone compounds as PDE2 inhibitors” (Merck Sharp & Dohme Corp., priority 2015, dated 2019) are described below.

Read-outs that look alike come from different tables or passages of the source.

The experiment addresses T1, Rhesus PDE2A3 (Macaca mulatta, UniProt B3VTJ2).
T1 construct: made in house; host or cells: AD293 cells, transient transfection, pcDNA3.3-TOPO; lysate supernatant used as enzyme
T1 sequence (B3VTJ2 1-941): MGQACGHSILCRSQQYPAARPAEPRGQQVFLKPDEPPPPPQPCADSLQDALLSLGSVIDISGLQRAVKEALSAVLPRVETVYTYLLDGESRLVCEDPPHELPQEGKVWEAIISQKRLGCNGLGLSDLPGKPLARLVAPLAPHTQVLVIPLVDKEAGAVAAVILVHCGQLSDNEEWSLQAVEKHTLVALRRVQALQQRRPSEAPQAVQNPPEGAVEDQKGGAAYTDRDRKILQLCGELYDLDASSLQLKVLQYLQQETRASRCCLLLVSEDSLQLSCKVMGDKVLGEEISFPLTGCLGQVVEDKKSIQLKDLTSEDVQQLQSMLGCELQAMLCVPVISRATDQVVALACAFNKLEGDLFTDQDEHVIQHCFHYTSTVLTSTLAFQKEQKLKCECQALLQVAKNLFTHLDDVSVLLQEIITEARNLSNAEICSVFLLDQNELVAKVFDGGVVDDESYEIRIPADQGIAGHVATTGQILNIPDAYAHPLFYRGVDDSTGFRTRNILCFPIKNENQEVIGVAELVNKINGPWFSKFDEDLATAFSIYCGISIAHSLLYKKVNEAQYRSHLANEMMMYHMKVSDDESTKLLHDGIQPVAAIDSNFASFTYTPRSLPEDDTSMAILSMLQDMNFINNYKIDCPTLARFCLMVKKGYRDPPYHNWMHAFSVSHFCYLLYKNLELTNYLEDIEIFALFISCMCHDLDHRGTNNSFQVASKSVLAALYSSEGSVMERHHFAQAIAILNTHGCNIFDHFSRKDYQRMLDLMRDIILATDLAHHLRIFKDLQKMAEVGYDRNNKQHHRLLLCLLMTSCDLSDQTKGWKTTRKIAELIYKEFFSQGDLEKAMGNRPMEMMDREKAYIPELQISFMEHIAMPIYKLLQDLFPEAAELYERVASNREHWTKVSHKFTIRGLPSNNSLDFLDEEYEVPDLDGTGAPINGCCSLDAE
Nature of the experiment: PDE2 fluorescence polarization (IMAP FP) inhibition assay, rhesus enzyme. It counts as biochemical, rhesus macaque. The method, boiled down:
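Lysate of AD293 cells transiently expressing rhesus PDE2A3, diluted for ~20% substrate conversion, with 50 nM FAM-cAMP and 1 uM cGMP activator in pH 7.2 Tris/MgCl2 buffer, 60 min at room temperature.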
Background: Polarisation of emitted light reports the rotation of a fluorescent probe.

Setting [1] is: Lab A, read-out: Rhesus PDE2 Ki (nM) Lab A.
Setting [2] is: Lab B, read-out: Rhesus PDE2 Ki (nM) Lab B.

Usually Ki stands for the dissociation constant of the complex between target and ligand, obtained from inhibition or displacement. As to `CCc1nc(-c2cnn(C(C)c3ccc(C(F)(F)F)cc3F)c2)cc(=O)[nH]1` (single isomer, unassigned) [Example 85, (R)- or (S)-2-ethyl-6-(1-(1-(2-fluoro-4-(trifluoromethyl)phenyl)ethyl)-1H-pyrazol-4-yl)pyrimidin-4(3H)-one], the Ki under setting [1] stood at 14.4 nM. As to `Cc1nc(-c2cnn(C(C)c3ccc(C4CC4)cc3F)c2)cc(=O)[nH]1` (single isomer, unassigned) [Example 91, (R)- or (S)-6-(1-(1-(4-cyclopropyl-2-fluorophenyl)ethyl)-1H-pyrazol-4-yl)-2-methylpyrimidin-4(3H)-one], under setting [1], the Ki came out at 60 nM.

Regarding `Cc1nc(-c2cnn(C(C)c3ccc(C4CC4)cc3C)c2)cc(=O)[nH]1` (single isomer, unassigned) [Example 94, (S)- or (R)-6-(1-(1-(4-cyclopropyl-2-methylphenyl)ethyl)-1H-pyrazol-4-yl)-2-methylpyrimidin-4(3H)-one], under setting [1], the Ki turned out to be 40.8 nM. Consider `CCc1ccc(C(C)n2cc(-c3cc(=O)[nH]c(C)n3)cn2)c(Cl)c1` (single isomer, unassigned) [Example 99, (R)- or (S)-6-(1-(1-(2-chloro-4-ethylphenyl)ethyl)-1H-pyrazol-4-yl)-2-methylpyrimidin-4(3H)-one], for which the Ki under setting [1] was found to be 10.7 nM. On to `CCc1ccc(C(C)n2cc(-c3cc(=O)[nH]c(C)n3)cn2)c(F)c1` (single isomer, unassigned) [Example 101, (R)- or (S)-6-(1-(1-(4-ethyl-2-fluorophenyl)ethyl)-1H-pyrazol-4-yl)-2-methylpyrimidin-4(3H)-one], for which the Ki under setting [1] came out at 25.4 nM. Regarding `Cc1nc(-c2cnn(C(C)c3ccc(OC(F)(F)F)cc3)c2)cc(=O)[nH]1` (single isomer, unassigned) [Example 127, (R)- or (S)-2-methyl-6-(1-(1-(4-(trifluoromethoxy)phenyl)ethyl)-1H-pyrazol-4-yl)pyrimidin-4(3H)-one], under setting [2], the Ki amounted to 130 nM. As for `COc1ccc(Cc2nc(-n3ccc(C(C)c4ccc(C(F)(F)F)cc4)n3)cc(=O)[nH]2)cc1OC` (single isomer, unassigned) [Example 133, (R)- or (S)-2-(3,4-dimethoxybenzyl)-6-(3-(1-(4-(trifluoromethyl)phenyl)ethyl)-1H-pyrazol-1-yl)pyrimidin-4(3H)-one], the Ki under setting [2] was found to be 64.8 nM. Turning to `COc1ccc(Cc2nc(-n3ccc(C(C)c4ccc(C(F)(F)F)cc4)n3)cc(=O)[nH]2)cc1OC` (single isomer, unassigned) [Example 134, (R)- or (S)-2-(3,4-dimethoxybenzyl)-6-(3-(1-(4-(trifluoromethyl)phenyl)ethyl)-1H-pyrazol-1-yl)pyrimidin-4(3H)-one], the Ki under setting [2] came to 110 nM. On to `Cc1nc(-c2cnn(C(C)c3ccc(C(F)(F)F)cc3F)c2)cc(=O)[nH]1` (single isomer, unassigned) [Example 135, (R)- or (S)-6-(1-(1-(2-fluoro-4-(trifluoromethyl)phenyl)ethyl)-1H-pyrazol-4-yl)-2-methylpyrimidin-4(3H)-one], for which, under setting [2], the Ki was 109 nM. `Cc1nc(-c2cnn(C(C)c3ccc(C(F)(F)F)cc3F)c2)cc(=O)[nH]1` (single isomer, unassigned) [Example 136, (S)- or (R)-6-(1-(1-(2-fluoro-4-(trifluoromethyl)phenyl)ethyl)-1H-pyrazol-4-yl)-2-methylpyrimidin-4(3H)-one]: the Ki runs as follows: under setting [1], 18.3 nM; under setting [2], 11.1 nM. Consider `COc1ccc(Cc2nc(-c3cnn(C(C)c4ccc(C(F)(F)F)cc4F)c3)cc(=O)[nH]2)cc1` (single isomer, unassigned) [Example 138, (R)- or (S)-6-(1-(1-(2-fluoro-4-(trifluoromethyl)phenyl)ethyl)-1H-pyrazol-4-yl)-2-(4-methoxybenzyl)pyrimidin-4(3H)-one], for which the Ki under setting [1] is 5.6 nM and the Ki under setting [2] amounted to 1.6 nM. On the same counts, the results for `COc1ccc(Cc2nc(-c3cnn(C(C)c4ccc(C(F)(F)F)cc4F)c3)cc(=O)[nH]2)cc1` (single isomer, unassigned) [Example 139, (S)- or (R)-6-(1-(1-(2-fluoro-4-(trifluoromethyl)phenyl)ethyl)-1H-pyrazol-4-yl)-2-(4-methoxybenzyl)pyrimidin-4(3H)-one] are 52.1 nM and 19.1 nM.

`COc1cccc(Cc2nc(-c3cnn(C(C)c4ccc(C(F)(F)F)cc4F)c3)cc(=O)[nH]2)c1` (single isomer, unassigned) [Example 140, (R)- or (S)-6-(1-(1-(2-fluoro-4-(trifluoromethyl)phenyl)ethyl)-1H-pyrazol-4-yl)-2-(3-methoxybenzyl)pyrimidin-4(3H)-one]: the Ki was determined as 3 nM under setting [1] and 0.8 nM under setting [2]. On to `COc1cccc(Cc2nc(-c3cnn(C(C)c4ccc(C(F)(F)F)cc4F)c3)cc(=O)[nH]2)c1` (single isomer, unassigned) [Example 141, (S)- or (R)-6-(1-(1-(2-fluoro-4-(trifluoromethyl)phenyl)ethyl)-1H-pyrazol-4-yl)-2-(3-methoxybenzyl)pyrimidin-4(3H)-one], for which the Ki is, setting by setting: under setting [1], 25.6 nM; under setting [2], 8.7 nM.

`COc1cc(Cc2nc(-c3cnn(C(C)c4ccc(C(F)(F)F)cc4F)c3)cc(=O)[nH]2)ccc1F` (single isomer, unassigned) [Example 142, (R)- or (S)-2-(4-fluoro-3-methoxybenzyl)-6-(1-(1-(2-fluoro-4-(trifluoromethyl)phenyl)ethyl)-1H-pyrazol-4-yl)pyrimidin-4(3H)-one]: the Ki turned out to be 3.3 nM under setting [1] and 1.4 nM under setting [2]. On the same counts, the results for `COc1cc(Cc2nc(-c3cnn(C(C)c4ccc(C(F)(F)F)cc4F)c3)cc(=O)[nH]2)ccc1F` (single isomer, unassigned) [Example 143, (S)- or (R)-2-(4-fluoro-3-methoxybenzyl)-6-(1-(1-(2-fluoro-4-(trifluoromethyl)phenyl)ethyl)-1H-pyrazol-4-yl)pyrimidin-4(3H)-one] are 21.3 nM and 10.9 nM. `COc1ccc(Cc2nc(-c3cnn(C(C)c4ccc(C(F)(F)F)cc4F)c3)cc(=O)[nH]2)cc1F` (single isomer, unassigned) [Example 146, (R)- or (S)-6-(1-(1-(2-fluoro-4-(trifluoromethyl)phenyl)ethyl)-1H-pyrazol-4-yl)-2-(3-fluoro-4-methoxybenzyl)pyrimidin-4(3H)-one]: the Ki under setting [1] worked out at 31.5 nM. `COc1ccc(Cc2nc(-c3cnn(C(C)c4ccc(C(F)(F)F)cc4F)c3)cc(=O)[nH]2)cc1F` (single isomer, unassigned) [Example 147, (S)- or (R)-6-(1-(1-(2-fluoro-4-(trifluoromethyl)phenyl)ethyl)-1H-pyrazol-4-yl)-2-(3-fluoro-4-methoxybenzyl)pyrimidin-4(3H)-one]: the Ki under setting [1] is 3.6 nM.

Take `Cc1ccc(C(C)n2cc(-c3cc(=O)[nH]c(C)n3)cn2)c(Cl)c1` (single isomer, unassigned) [Example 148, (R)- or (S)-6-(1-(1-(2-chloro-4-methylphenyl)ethyl)-1H-pyrazol-4-yl)-2-methylpyrimidin-4(3H)-one]: under setting [1], the Ki came to 47.9 nM. Take `CC(C)c1nc(-c2cnn(C(C)c3ccc(C(F)(F)F)cc3F)c2)cc(=O)[nH]1` (stereo not shown) [Example 9, 6-(1-(1-(2-Fluoro-4-(trifluoromethyl)phenyl)ethyl)-1H-pyrazol-4-yl)-2-isopropylpyrimidin-4(3H)-one]: the Ki came out at 58.8 nM under setting [1] and 30.7 nM under setting [2].
